This note sets out measurements from ChEMBL document CHEMBL5154774, “Discovery of Novel Celastrol-Imidazole Derivatives with Anticancer Activity In Vitro and In Vivo” (J Med Chem, 2022).

Data set [1] concerns A549. Nature of the data set: Antitumor activity against human A549 cells xenografted in BALB/c mouse lung tumor model assessed as tumor weight at 1 mg/kg, ip measured every day for 21 days by caliper method. The data set is classed as functional. Particulars: time 21 day.
Data set [2] relates to A549. Nature of the data set: Induction of apoptosis in human A549 cells assessed as downregulation of Cdk4 level incubated for 12 hrs by Western blot analysis. Type of data set: functional, cell-based. Particulars: dose 1.25-5 µM, DDE = dose-dependent effect. In general terms: Immunoblotting shows a protein as a band on a membrane.
The target of data set [3] is T1, Hsp90 co-chaperone Cdc37 (Homo sapiens) (UniProt Q16543).
T1 sequence (whole entry): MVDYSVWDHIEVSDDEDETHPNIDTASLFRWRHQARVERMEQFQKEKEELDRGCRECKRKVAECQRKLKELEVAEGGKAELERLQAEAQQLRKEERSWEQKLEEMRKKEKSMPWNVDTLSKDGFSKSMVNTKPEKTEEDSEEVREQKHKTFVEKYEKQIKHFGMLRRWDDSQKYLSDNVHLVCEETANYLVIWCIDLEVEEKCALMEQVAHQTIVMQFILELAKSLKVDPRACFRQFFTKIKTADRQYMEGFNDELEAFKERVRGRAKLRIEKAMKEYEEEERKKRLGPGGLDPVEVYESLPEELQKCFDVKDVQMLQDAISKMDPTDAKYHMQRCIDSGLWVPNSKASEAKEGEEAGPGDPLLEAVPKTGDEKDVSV
Nature of the data set: Binding affinity to Cdc37 (unknown origin) at 80 uM by UV-Vis spectrophotometric analysis.

For data set [4], the system named is A549. Nature of the data set: […] of Bcl-2 protein expression in human A549 cells at 1.25 to 5 uM incubated for 12 hrs by Western blot analysis. Type of data set: functional, cell-based. Particulars: dose 1.25-5 µM.
Data set [5] relates to A549. Nature of the data set: Induction of apoptosis in human A549 cells at 0.1 to 0.4 uM incubated for 48 hrs by Hoechst33342 staining based fluorescence microscopic analysis. Type of data set: functional, cell-based. The note with it: dose 0.1-0.4 µM.
Data set [6] relates to A549. In words: Induction of apoptosis in human A549 cells assessed as downregulation of p-Akt level incubated for 12 hrs by Western blot analysis. Type of data set: functional, cell-based. The note with it: dose 1.25-5 µM, DDE = dose-dependent effect.
Data set [7] deals with A549. In words: Induction of apoptosis in human A549 cells assessed as total apoptotic cells at 0.8 uM incubated for 48 hrs Annexin V-FITC/propidium iodide staining based flow cytometry relative to control. Type of data set: functional.
Data set [8] has as its system A549. In words: Antiproliferative activity against human A549 cells expressing Cdc37 protein assessed as inhibition of cell growth incubated for 48 hrs by MTT assay. The note with it: A549, 48 h. The data set is classed as functional, cell-based. Background: Formazan colour is commonly taken as a measure of viable cells.
A further data set has as its system HCT-116. In words: Antiproliferative activity against human HCT-116 cells assessed as inhibition of cell growth incubated for 48 hrs by MTT assay. The data set is classed as functional, cell-based. Particulars: HCT-116, 48 h.
Data set [9] relates to A549. Nature of the data set: Antitumor activity against human A549 cells xenografted in BALB/c mouse lung tumor model assessed as tumor inhibition rate at 1 mg/kg, ip measured every day for 21 days by caliper method relative to control. Type of data set: functional. The note with it: A549, 504 h, time 21 day. On the technique in general: A xenograft is tissue or cells of one species grown in another, often human tumour cells in immunodeficient mice.

Data set [10] has as its system A549. In words: Antiproliferative activity against human A549 cells expressing Hsp90-Cdc37 protein assessed as inhibition of cell growth incubated for 48 hrs by MTT assay. The note with it: A549, 48 h. The data set is classed as functional, cell-based.
In data set [11] the test system is A549. Nature of the data set: Antiproliferative activity against human A549 cells expressing Hsp90 protein assessed as inhibition of cell growth incubated for 48 hrs by MTT assay. Type of data set: functional, cell-based. Particulars: A549, 48 h.
The subject of data set [12] is A549. In words: Antiproliferative activity against human A549 cells assessed as inhibition of cell growth incubated for 48 hrs by MTT assay. The data set is classed as functional, cell-based. The note with it: A549, 48 h.
Data set [13] deals with A549. Nature of the data set: Inhibition of Hsp90-Cdc37 complex in human A549 cells assessed as decrease in Hsp90-Cdc37 protein level at 10 uM incubated for 6 hrs by co-immunoprecipitation assay relative to CEL. The data set is classed as cell-based.
Data set [14] is described as follows: Toxicity in BALB/c mouse xenografted with human A549 cells assessed as reduction in body weight at 0.5 to 1 mg/kg, ip measured for 21 days. Particulars: in vivo, 504 h, dose 0.5-1 mg/kg, time 21 day. Type of data set: organism-based.
Data set [15] relates to A549. Nature of the data set: Upregulation of cleaved capase-3 expression in human A549 cells at 1.25 to 5 uM incubated for 12 hrs by Western blot analysis. Type of data set: functional, cell-based. Particulars: dose 1.25-5 µM.
Data set [16] relates to A549. In words: Induction of apoptosis in human A549 cells assessed as total apoptotic cells at 0.2 uM incubated for 48 hrs Annexin V-FITC/propidium iodide staining based flow cytometry relative to control. The data set is classed as functional.
For a further data set, the system named is U2OS. Nature of the data set: Antiproliferative activity against human U2OS cells assessed as inhibition of cell growth incubated for 48 hrs by MTT assay. Type of data set: functional, cell-based.
Data set [17] can be described thus: Thiol reactivity of the compound with DTT by 1H-NMR analysis. The data set is classed as physicochemical.
Data set [18] in a line: Stability of the compound in PBS/MeOH buffer by HPLC analysis. The data set is classed as physicochemical.
The test system of data set [19] is A549. Nature of the data set: Upregulation of Bax protein expression in human A549 cells at 1.25 to 5 uM incubated for 12 hrs by Western blot analysis. The data set is classed as functional, cell-based. The note with it: dose 1.25-5 µM.
Data set [20] addresses Heat shock protein HSP90 (Homo sapiens) (UniProt P07900+P08238). In words: Binding affinity to Hsp90 (unknown origin) at 80 uM by UV-Vis spectrophotometric analysis. The data set is classed as protein assay.
The test system of the next data set is MDA-MB-231. Nature of the data set: Antiproliferative activity against human MDA-MB-231 cells assessed as inhibition of cell growth incubated for 48 hrs by MTT assay. Type of data set: functional, cell-based. The note with it: MDA-MB-231, 48 h.
Data set [21] relates to A549. Nature of the data set: Antitumor activity against human A549 cells xenografted in BALB/c mouse lung tumor model assessed as tumor inhibition rate at 0.5 mg/kg, ip measured every day for 21 days by caliper method relative to control. The data set is classed as functional. Particulars: A549, 504 h, time 21 day.
The test system of data set [22] is A549. In words: Induction of cell cycle arrest in human A549 cells assessed as accumulation of cells at G0/G1 phase measured after 24 hrs by PI staining based flow cytometry analysis. The data set is classed as functional. Particulars: dose 0.1-0.4 µM, DDE = dose-dependent effect.
Data set [23] relates to A549. In words: Upregulation of cleaved PARP expression in human A549 cells at 1.25 to 5 uM incubated for 12 hrs by Western blot analysis. Type of data set: functional, cell-based. Particulars: dose 1.25-5 µM.
For data set [24], the system named is A549. In words: Induction of apoptosis in human A549 cells assessed as total apoptotic cells at 0.4 uM incubated for 48 hrs Annexin V-FITC/propidium iodide staining based flow cytometry relative to control. Type of data set: functional.

The source made the active and inactive calls. The calls are words filed in the database; no cut-off is given here.

Turning to `CC1=C(O)C(=O)C=C2C1=CC=C1[C@@]2(C)CC[C@@]2(C)[C@@H]3C[C@](C)(C(=O)OCCCn4cc([N+](=O)[O-])nc4Cl)CC[C@]3(C)CC[C@]12C`, the Activity in the data set on A549 [1] is 0.46 g; in the data set on A549 [2], “Dde”; in the data set on A549 [6], “Dde”; with A549 [7], 29.9%; in [14] it was “Non-Toxic”; with A549 [16], 9%. Moreover, the Activity result is “Active” in [17], “Dde” in the data set with A549 [22] and 11.7% in the data set on A549 [24]. For the same molecule, the outcome (in data set [3]; with A549 [4]; in the data set on A549 [5]; with A549 [15]; with A549 [19]; in data set [20]) was Active. Moreover, in the data set on A549 [23], the result was Active. The IC50 in the data set on A549 [8] is above 100000 nM; with HCT-116, 590 nM; in the data set with A549 [10], above 100000 nM; in the data set with A549 [11] it was above 100000 nM; in the data set on A549 [12], 540 nM; with U2OS, 570 nM. Further, the IC50 in the data set with MDA-MB-231 was found to be 570 nM. Further, in the data set on A549 [9], the inhibition in vivo at 1 mg/kg was 68.3%. Also, the inhibition in the data set on A549 [13] worked out at 33.3%. Also, the Stability result in data set [18] is listed as “Stable”. Moreover, in the data set with A549 [21], the inhibition in vivo at 0.5 mg/kg is 54.1%.
Take `CC1=C(O)C(=O)C=C2C1=CC=C1[C@@]2(C)CC[C@@]2(C)[C@@H]3C[C@](C)(C(=O)O)CC[C@]3(C)CC[C@]12C` [CELASTROL]: the Activity in the data set on A549 [1] is reported as 0.67 g. In addition, the 50% inhibitory concentration (IC50) in the data set with A549 [8] was above 100000 nM; with HCT-116, 1810 nM; with A549 [10] it was above 100000 nM; with A549 [11], above 100000 nM; in the data set with A549 [12] it was 1680 nM; in the data set on U2OS it was 1860 nM. Moreover, the 50% inhibitory concentration (IC50) in the data set on MDA-MB-231 turned out to be 1980 nM. Moreover, in the data set with A549 [9], the inhibition in vivo at 1 mg/kg was 52.7%.

As usually defined, the IC50 is the concentration that inhibits the measured activity by half. What is called inhibition in vivo is the percentage by which the read-out fell short of the control. Broadly, the inhibition is the change of the read-out against control, counted positive when it falls.
